Experimental data published in publication PMC9312114, “Synthesis and Evaluation of Novel DNA Minor Groove Binders as Antiamoebic Agents” (Antibiotics, 2022).

Tests used:
Acanthamoeba castellanii [1] = test: Amoebicidal assay; assay type: cell-based, Acanthamoeba castellanii genotype T4 (ATCC 50492)
Description: Acanthamoeba castellanii genotype T4 (ATCC 50492) was cultivated in 10 mL growth medium of peptone yeast glucose (PYG) in tissue flasks (Baig, et al., 2021; Anwar, et al., 2019). The growth medium, PYG, consists of 0.75% proteose peptone, 0.75% yeast extract, and 1.5% glucose. Next, the amoebae were kept in tissue flasks and incubated at 30 °C.
To determine the compounds’ antiamoebic effects, amoebicidal assays were conducted. The 5 × 10^5 amoebae were placed in a 24-well plate and brought to a final volume of 500 µL. […] The 24-well plate was then placed in a 30 °C incubator for 24 h. Positive and negative controls were added to the assay in order to ensure reliable results. Serving as the negative control was the amoebae alone, with RPMI [4]. Meanwhile, amoebae, along with 0.25% sodium dodecyl sulphate (SDS), were used as the positive control. Through the addition of 0.1% methylene blue, live and dead amoebae were distinguished. Additionally, significant compounds were identified by conducting a Student’s t-test with a two-tailed distribution. Furthermore, the MIC50 values of three compounds were determined by using concentrations of […], 75, and 100 µM.

Acanthamoeba castellanii [2] = test: Encystation assay; assay type: cell-based; settings: 16% glucose, 48 h, negative control 100% cysts
Description: The effects of the compounds on amoeba encystation were determined through the conduction of encystation assays. Briefly, 1 × 10^6 trophozoites were incubated with the compounds in a final concentration of 16% filter-sterilized glucose. Following a 48 h incubation period, 0.1% SDS was added per well for 20 min. The cysts were then counted by using a haemocytometer. To ensure accuracy, Acanthamoeba castellanii was cultured in 16% glucose, serving as the negative control.

[3] = test system: Acanthamoeba castellanii cysts; test: Excystation assay; assay type: cell-based; settings: cysts in PYG, negative control 100%, read-out: viable trophozoites (re-emergence of cysts to trophozoites)
Description: Amoeba culture was suspended in 3 mL phosphate-buffered saline (PBS) and placed on non-nutrient bacteriological agar plates to allow for the growing of Acanthamoeba castellanii cysts. After two weeks, PBS was applied to plates containing amoeba cysts, which were then scraped off. The amoebae were centrifuged at 3000× g for 10 min, and the resulting pellet was resuspended in RPMI. The 5 × 10^5 cysts were then incubated in PYG, along with 50 µM of the compounds. To ensure accuracy, amoeba cysts in PYG alone were considered as the negative control, whereas amoeba cysts in RPMI alone were taken as the positive control, as the cysts would not be able to revert back to trophozoites. The amoeba trophozoites were then numbered by using a haemocytometer.

HeLa cells = test: Cytotoxicity assay (LDH release); assay type: cell-based, human; settings: 50 µM, 24 h, LDH release, Triton X-100 = 100%
Description: HeLa cells were acquired from American Type Culture Collection (ATCC) of identification ATCC CCL-2, Singapore. The cells are utilized to conduct cytotoxicity and cytopathogenicity assays. Through their cultivation in complete media, the cells were grown, and then they were placed in a 95% humidifying incubator at 37 °C and 5% CO2. Complete medium comprises Roswell Park Memorial Media (RPMI), 1% penicillin–streptomycin, 1% minimum essential medium amino acids, 1% L-glutamine, and 10% fetal bovine serum (FBS). To determine the toxicity of the compounds against human HeLa cells, cytotoxicity assays were conducted. In short, HeLa cells were cultured in 96-well plates and treated with the compounds. The plate was then placed in a humidifying incubator with 95% humidity and 5% CO2, at 37 °C, for 24 h. After 24 h, the supernatant was collected, and the cytotoxicity of the compounds was determined through a cytotoxicity detection kit that measured the quantity of lactate dehydrogenase (LDH) release. Accurate results were ensured through the addition of positive and negative controls. Untreated HeLa cells served as the negative control, whereas HeLa cells treated with 1% Triton X-100 served as the positive control. Finally, the cytotoxic properties were numerically determined by following the necessary calculations: (absorbance of media from cells treated with the drugs—absorbance of media from cells of negative control)/(absorbance of media from cells of positive control—absorbance of media from cells of negative control) × 100 [19].

[4] = test system: Acanthamoeba castellanii on HeLa cell monolayers; test: Cytopathogenicity assay (amoeba-mediated host-cell death); assay type: cell-based; settings: amoebae pretreated with 50 µM for 2 h, then 24 h on HeLa cells, negative control 100%
Description: Amoeba-mediated host-cell death was determined by treating 5 × 10^5 amoebae with 50 µM of compounds. The amoeba-containing plate was then placed in the incubator for 2 h at 30 °C. Following the 2 h incubation period, the treated amoebae were put on confluent HeLa cell monolayers. The plate containing the treated amoebae and HeLa cells was incubated for 24 h. Progressing the incubation period, the supernatant was collected, and the cytotoxicity was determined. Accurate results were ensured through the addition of negative and positive controls. The untreated amoebae, alone, on the cells served as the negative control, while the cells treated with Triton X-100 served as the positive control.

DNA = test: Biophysical analysis of binding with DNA; settings: in words

CN(C)CCCNC(=O)c1cc(NC(=O)c2cc(NC(=O)c3cc(NC(=O)c4nccn4C)cn3C)cn2C)cn1C [MGB5, N-(5-((5-((5-((3-(dimethylamino)propyl)carbamoyl)-1-methyl-1H-pyrrol-3-yl)carbamoyl)-1-methyl-1H-pyrrol-3-yl)carbamoyl)-1-methyl-1H-pyrrol-3-yl)-1-methyl-1H-imidazole-2-carboxamide]
viability at 50 µM (Acanthamoeba castellanii [1]; Acanthamoeba castellanii, 50 µM, 24 h, negative control 100%, read-out: amoeba viability): 98.4%
activity against Acanthamoeba castellanii (Acanthamoeba castellanii [1]; in words): no activity
cysts present (Acanthamoeba castellanii [2]): 48.3%
viability at 50 µM [3]: 80.8%
cytotoxicity against human HeLa cells (HeLa cells): 10.9%
amoeba-mediated host-cell death (cytotoxic activity due to amoeba) [4]: 57.8%
ability to bind with DNA (DNA): bind with DNA
